From US6737383B1, “Herbicidal oxadiazolidines” (priority 1999, dated 2004)

Columns and labels:
[1] = tested on: giant foxtail; assay: Test B pre/postemergence giant foxtail; type: in vivo, Setaria faberii; conditions: for Giant foxtail plant response rating (0 to 10 scale): 0 is no effect
In short: (§1)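 Herbicidal effect was estimated by eye on a ten-point control scale after plants spent twelve to sixteen days in a greenhouse following soil or foliar treatment. Foliar sprays targeted plants at one to four leaves; all doses were formulated in a non-phytotoxic solvent with surfactant.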

[2] = tested on: cocklebur; assay: Test B pre/postemergence cocklebur; type: in vivo, Xanthium strumarium; conditions: for Cocklebur plant response rating (0 to 10 scale): 0 is no effect
In short: as §1

[3] = tested on: morningglory; assay: Test B pre/postemergence morningglory; type: in vivo, Ipomoea hederacea; conditions: for Morningglory plant response rating (0 to 10 scale): 0 is no effect
In short: as §1

[4] = tested on: bamyardgrass; assay: Test B flood test barnyardgrass; type: in vivo, Echinochloa crus-galli
In short: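 Read-out is a visual response score from 0 (no effect) to 10 (complete control), assigned by comparison with untreated controls. Treatment was applied at the 2-leaf stage, and plants stayed in the greenhouse for twelve to sixteen days before scoring.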

[5] = Postemergence, Rate 125 g/ha, scale of 0 to 10 where 0 is no effect and 10 is complete control
[6] = Preemergence, Rate 62 g/ha, scale 0 to 10 (0 no effect, 10 complete control)
[7] = Preemergence, Rate 125 g/ha, 10 is complete control
[8] = Preemergence, Rate 250 g/ha, scale of 0 to 10 where 0 is no effect and 10 is complete control
[9] = Preemergence, Rate 500 g/ha, scale 0 to 10 (0 no effect, 10 complete control)
[10] = Rate 62 g/ha, Postemergence, scale of 0 to 10 where 0 is no effect and 10 is complete control
[11] = Rate 250 g/ha, Postemergence, scale 0 to 10, 0 is no effect, 10 is complete control
[12] = Rate 500 g/ha, Postemergence, scale 0 to 10, 0 no effect, 10 complete control
[13] = Postemergence (flood test species), Rate 125 g/ha, scale of 0 to 10 where 0 is no effect and 10 is complete control
[14] = Rate 250 g/ha, Postemergence (flood test), scale 0 to 10, 0 is no effect, 10 is complete control
[15] = Rate 500 g/ha, headed Pre-emergence (flood test species), scale 0 to 10 (0 no effect, 10 complete control)
[16] = Rate 500 g/ha, listed under Postemergence (flood test species), scale 0 to 10, 0 no effect, 10 complete control
[17] = Preemergence, Rate 250 g/ha, scale 0 to 10, 0 is no effect, 10 is complete control
[18] = Rate 500 g/ha, Postemergence, scale 0 to 10
[19] = Rate 62 g/ha, Postemergence section, flood test species, scale of 0 to 10 where 0 is no effect and 10 is complete control
[20] = Preemergence, Rate 62 g/ha, scale of 0 to 10 where 0 is no effect and 10 is complete control
[21] = Rate 125 g/ha, Postemergence, scale 0 to 10
[22] = Rate 62 g/ha, headed Pre-emergence (flood test species), scale 0 to 10 (0 no effect, 10 complete control)
[23] = Rate 125 g/ha, Pre-emergence, flood test species, scale 0 to 10 where 0 is no effect and 10 is complete control
[24] = Rate 250 g/ha, Pre-emergence, flood-test species, scale 0 to 10, 0 is no effect, 10 is complete control
[25] = Preemergence, Rate 500 g/ha, scale of 0 to 10 where 0 is no effect and 10 is complete control

SMILES	Giant foxtail plant response rating [1, 5]	Giant foxtail plant response rating (0 to 10 scale) [1, 7]	Giant foxtail plant response rating [1, 9]	Giant foxtail plant response rating [1, 10]	Plant response rating, Giant foxtail [1, 11]	Cocklebur plant response rating [2, 5]	Cocklebur plant response rating [2, 10]	Plant response rating, Cocklebur [2, 11]	Morningglory plant response rating [3, 5]	Morningglory plant response rating (0 to 10 scale) [3, 7]	Morningglory plant response rating [3, 9]	Morningglory plant response rating [3, 10]	Plant response rating, Morningglory [3, 11]	Giant foxtail plant response rating [1, 17]	Giant foxtail plant response rating [1, 18]	Cocklebur plant response rating (0 to 10 scale) [2, 7]	Cocklebur plant response rating [2, 17]	Cocklebur plant response rating [2, 18]	Morningglory plant response rating [3, 17]	Morningglory plant response rating [3, 18]	further results
CC(C)N(C(=O)n1oc(=O)n(-c2cnn(C)c2Cl)c1=O)c1ccccc1 [Compound 122]	2	9	9	2	6	2	0	3	3	0	0	1	4	–	–	–	–	–	–	–	Giant foxtail plant response rating [1, 6]: 7; Plant response rating, Giant foxtail [1, 8]: 9; Giant foxtail plant response rating [1, 12]: 9; Cocklebur plant response rating [2, 6]: 0; Plant response rating, Cocklebur [2, 8]: 0; Cocklebur plant response rating [2, 12]: 3; Morningglory plant response rating [3, 6]: 0; Plant response rating, Morningglory [3, 8]: 0; Morningglory plant response rating [3, 12]: 4; Barnyardgrass plant response rating [4, 13]: 0; Barnyardgrass plant response rating ([4]; Postemergence, Rate 62 g/ha, scale 0 to 10, 0 is no effect, 10 is complete control): 0; Plant response rating, Barnyardgrass [4, 14]: 0; Barnyardgrass plant response rating ([4]; Rate 250 g/ha, headed Pre-emergence (flood test species), scale 0 to 10 (0 no effect, 10 complete control)): 0; Plant response rating, Barnyardgrass [4, 15]: 0; Barnyardgrass plant response rating [4, 16]: 0; Barnyardgrass plant response rating ([4]; Rate 1000 g/ha, Pre-emergence (as headed), scale 0 to 10): 0; Barnyardgrass plant response rating ([4]; Rate 2000 g/ha, Pre-emergence (as headed), scale 0 to 10, 0 no effect, 10 complete control): 0
CCOC(=O)Cn1c(=O)on(C(=O)N(c2ccc(F)cc2)C(C)C)c1=O [Compound 128]	0	0	8	0	0	0	0	0	0	0	0	0	0	0	0	0	0	0	0	0	Giant foxtail plant response rating [1, 6]: 0; Cocklebur plant response rating [2, 6]: 0; Cocklebur plant response rating [2, 9]: 0; Morningglory plant response rating [3, 6]: 0; Barnyardgrass plant response rating [4, 13]: 0; Plant response rating, Barnyardgrass [4, 14]: 0; Barnyardgrass plant response rating [4, 16]: 0
Cc1ccccc1Cn1c(=O)on(C(=O)N(c2ccc(Cl)cc2)C(C)C)c1=O [Compound 136]	4	4	10	0	7	2	1	2	10	0	0	6	10	10	7	0	0	4	0	10	Giant foxtail plant response rating [1, 6]: 0; Cocklebur plant response rating [2, 6]: 0; Morningglory plant response rating [3, 6]: 0; Barnyardgrass plant response rating [4, 13]: 0; Barnyardgrass plant response rating [4, 19]: 0; Plant response rating, Barnyardgrass [4, 14]: 0; Barnyardgrass plant response rating [4, 16]: 0
CC(C)N(C(=O)n1oc(=O)n(-c2nc(Cl)sc2Cl)c1=O)c1ccc(F)cc1 [Compound 160]	0	0	0	0	0	0	0	0	0	0	0	0	0	0	0	0	0	0	0	0	Giant foxtail plant response rating [1, 20]: 0; Cocklebur plant response rating [2, 20]: 0; Cocklebur plant response rating [2, 9]: 0; Morningglory plant response rating [3, 20]: 0; Barnyardgrass plant response rating [4, 13]: 0; Barnyardgrass plant response rating [4, 19]: 0; Plant response rating, Barnyardgrass [4, 14]: 0; Barnyardgrass plant response rating ([4]; Rate 500 g/ha, listed under Postemergence (flood test species), scale 0 to 10): 0
Cc1ccccc1-n1c(=O)on(C(=O)N(c2ccc(-c3ccccc3)cc2)C(C)C)c1=O [Compound 187]	–	0	0	0	–	–	0	–	–	0	0	0	–	0	0	0	0	0	0	0	Giant foxtail plant response rating [1, 20]: 0; Giant foxtail plant response rating [1, 21]: 0; Plant response rating (0 to 10; 0 is no effect, 10 is complete control), Giant foxtail ([1]; Rate 250 g/ha, Postemergence): 0; Cocklebur plant response rating [2, 20]: 0; Cocklebur plant response rating [2, 9]: 0; Cocklebur plant response rating [2, 21]: 0; Plant response rating (0 to 10; 0 is no effect, 10 is complete control), Cocklebur ([2]; Rate 250 g/ha, Postemergence): 0; Morningglory plant response rating [3, 20]: 0; Morningglory plant response rating [3, 21]: 0; Plant response rating (0 to 10; 0 is no effect, 10 is complete control), Morningglory ([3]; Rate 250 g/ha, Postemergence): 0; Barnyardgrass plant response rating [4, 22]: 0; Barnyardgrass plant response rating [4, 23]: 0; Barnyardgrass plant response rating [4, 24]: 0; Plant response rating, Barnyardgrass [4, 15]: 0
Cc1ccccc1-n1c(=O)on(C(=O)N(c2ccc(S(C)(=O)=O)cc2)C(C)C)c1=O [Compound 203]	–	0	–	0	–	–	0	–	–	0	–	0	–	0	0	0	0	0	0	0	Giant foxtail plant response rating [1, 20]: 0; Plant response rating, Giant foxtail [1, 25]: 0; Giant foxtail plant response rating [1, 21]: 0; Plant response rating (0 to 10; 0 is no effect, 10 is complete control), Giant foxtail ([1]; Rate 250 g/ha, Postemergence): 0; Cocklebur plant response rating [2, 20]: 0; Plant response rating, Cocklebur [2, 25]: 0; Cocklebur plant response rating [2, 21]: 0; Plant response rating (0 to 10; 0 is no effect, 10 is complete control), Cocklebur ([2]; Rate 250 g/ha, Postemergence): 0; Morningglory plant response rating [3, 20]: 0; Plant response rating, Morningglory [3, 25]: 0; Morningglory plant response rating [3, 21]: 0; Plant response rating (0 to 10; 0 is no effect, 10 is complete control), Morningglory ([3]; Rate 250 g/ha, Postemergence): 0; Barnyardgrass plant response rating [4, 22]: 0; Barnyardgrass plant response rating [4, 23]: 0; Barnyardgrass plant response rating [4, 24]: 0; Plant response rating, Barnyardgrass [4, 15]: 0
